The text below walks through data of EP4324461A1, “(E)-N-CINAMOYLAMINOALKANOLES WITH MELANOGENESIS INHIBITORY ACTIVITY” (UNIWERSYTET JAGIELLONSKI, priority 2022, dated 2024).

Values after ≈ are worked out from the molar mass of the structure shown. Where two headings read alike, the source gives them in different places.

The subject of one series is S. typhimurium TA98. Briefly: Ames microplate test, TA98.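 Further: reference level is the mean solvent-control yellow wells plus SD.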 The format is cell-based, Salmonella typhimurium. The method, then: (§1) Bacteria were grown overnight in growth medium.
(§2) Table 9. Ames microplate test results.

A short description of series [1]: Lipophilicity coefficient RM0 by reversed phase thin layer chromatography. The format is physicochemical. The note with it: RP-18 TLC, methanol / 100 mM phosphate buffer pH = 7.4. An outline of the steps: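 Reversed-phase TLC on RP-18 F254 silica, with methanol/100 mM phosphate buffer pH 7.4 mobile phases of 95–65% (v/v) methanol, at room temperature, in duplicate. Spots were visualized under UV at 254 nm. RM = log(1/Rf − 1) was plotted linearly against methanol content to derive RM0.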

In the next series the test system is S. typhimurium TA100. Briefly: Ames microplate test, TA100.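 Further: reference level is the mean solvent-control yellow wells plus SD.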 Type of series: cell-based, Salmonella typhimurium. How it is done: as §1, §2
Series [2] deals with Chinese hamster ovary cell line (CHO-K1). In words: Genotoxicity in the micronucleus test in CHO-K1 cells. The format is cell-based.
For another series, the system named is tyrosinase from mushroom. Briefly: Inhibition of commercial mushroom tyrosinase (L-DOPA or L-tyrosine substrate). Type of series: biochemical. The method in brief:
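Tyrosinase (1U/well or 3U/well) in 50 mM phosphate buffer pH 6.8 with compound at final 500, 250 or 125 µM; L-DOPA (diphenolase) or L-tyrosine (monophenolase) added in separate runs. Absorbance at 475 nm after 25 min; % inhibition versus DMSO control.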

The test system of series [3] is B16-F10 murine melanoma cell line. Briefly: Cytotoxicity in B16-F10 cells (MTT). The format is cell-based. The note with it: 48 h. The method in brief:
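Cells in F10-Ham with 1% FBS exposed to various compound concentrations for 48 h after 24 h pre-culture. MTT read-out: formazan dissolved in DMSO, absorbance at 570 nm. Viability expressed as percent of DMSO control (AT/AC×100).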

A further series relates to E. coli WP2. In words: Ames microplate test, E. coli WP2.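 Further: bacteria treated 90 min at 37 °C in 24-well plates, then indicator medium dispensed to 384-well plates and incubated 48 h before yellow-well counting.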
The test system of series [4] is Chinese hamster ovary cell line (CHO-K1). In words: Cytotoxicity in CHO-K1 cells (MTT) before the micronucleus test. The format is cell-based. The note with it: 24 hours. The method, then:
The assay was performed using a Chinese hamster ovary cell line (CHO-K1) purchased from the American Type Culture Collection (ATCC). The cells were cultured in F-12K medium with the addition of 10% fetal bovine serum (FBS) and antibiotics (streptomycin/penicillin) in an incubator at 37 °C and 5% CO2 concentration). Before the actual micronucleus test, a cytotoxicity assessment was performed to ensure that the actual test was performed only at safe concentrations. For this purpose, cells were transferred to 96-well plates and incubated with the tested compounds for 24 hours. After this time, the MTT test was performed and cell viability was assessed in comparison to the control group (cells cultured with DMSO at the same concentration as in the case of the tested samples).

A further series has as its system S. typhimurium TA1537. Briefly: Ames microplate test, TA1537.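 Further: reference level is the mean solvent-control yellow wells plus SD.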 Type of series: cell-based, Salmonella typhimurium. How it is done:
as §1, §2

Another series has as its system S. typhimurium TA1535. Briefly: Ames microplate test, TA1535.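 Further: bacteria exposed to compound 90 min at 37 °C, then kept 48 h at 37 °C with indicator medium in 384-well plates, scoring wells that turned yellow.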
The target in series [5] is tyrosinase. The note with it: cited from earlier work; for mechanism of tyrosinase inhibition: references [6], [7].
Series [6] deals with Balb/c 3T3 murine fibroblast cell line. In words: Phototoxicity in Balb/c 3T3 fibroblasts (neutral red uptake). How it is done: Balb/c 3T3 cells, which are an immortalized murine fibroblast cell line, were purchased at ATTC and cultured in the medium recommended by the manufacturer (DMEM GlutaMAX, newborn calf serum (BCS), antibiotics). After multiplication, cells were placed in 96-well plates, which were incubated for 24 hours, after which all wells of the plates were washed with 150 µL of balanced salt solution (HBSS). Then, after drying the plates, 100 µL of a solution of the tested compounds in HBSS with 2% FBS was added to each well and incubated for an hour. After this time, some of the plates were irradiated using the Suntest CPS+ sunlight simulator from Atlas with appropriate filters cutting off radiation with a wavelength <320 nm (UVA radiation intensity 5 J/cm^2). The second part of the plates was placed in radiation-free conditions for the same period of time. After the exposure time, the liquid was removed from all plates and the wells were washed twice with 150 µL of HBSS, then supplemented with fresh culture medium and incubated for 24 hours in an incubator (37 °C, 5% CO2). Viability was assessed in the neutral red uptake test, which is based on the ability of the dye to penetrate only into living cells. Dye uptake was confirmed by absorbance measurement at 540 nm. […] The appropriate coefficients were also calculated: mean phototoxic effect (MPE) and photoirritation factor (PIF). PIF is the ratio of the IC50 values of unirradiated to irradiated cells, while MPE is based on the comparison of concentration-response curves. […]

In series [7] the test system is reconstituted human epidermis EpiDerm. The note with it: 21 h, 0.01 %.
Procedure: An epidermis with an area of 0.6 cm^2 was used. After receiving the tissue, the inserts were transferred to fresh medium and incubated in an incubator (5% CO2, 37 °C). All work during epidermis culture and application of the tested compounds and formulations was carried out in a laminar air flow chamber, using aseptic principles and sterile reagents and utensils. […] The applied solutions and formulation were spread on the surface of the inserts using a sterile glass bulb headed Pasteur pipette. The plates were incubated in the incubator for 21 hours, after which the inserts were transferred to new 6-well plates with 0.9 mL DBPS. 1 plate was exposed to UVA radiation at a dose of 6 J/cm^2 using a solar light simulator (Solar Simulator, Atlas) as its source (+UVA plate). The second plate was placed in a dark place outside the incubator for the same period of time (-UVA plate). After exposure, inserts from both plates were rinsed with DPBS, dried with a sterile cotton bud and placed in new plates containing 0.9 mL of fresh growth medium and incubated for 21 hours. After this time, the MTT test was performed by placing the inserts in 0.3 mL of MTT solution in DMEM medium (concentration 1 mg/mL) for 3 hours. After this time, the formed formazan was extracted into isopropanol and the absorbance of all samples was read at 270 nm. […]
The subject of series [8] is human reconstructed epidermis Episkin™. In words: Skin irritation test in reconstructed human epidermis (Episkin). Particulars: 5% aqueous, 15 min exposure, 42 h incubation. How it is done:
The study used human reconstructed epidermis Episkin™ with an area of 1.07 cm^2. Immediately after receipt, the tissue was transferred to fresh medium and cultured in an incubator (37 °C, 5% CO2) for 18 hours. Before performing experiments, the inserts were washed with sterile PBS and placed in the wells of a 12-well plate containing 2 mL of fresh culture medium. […] After 15 min of exposure, samples were washed with PBS (5x5 mL). The inserts were transferred to plates with fresh culture medium and incubated for 42 hours (37 °C, 5% CO2). After this time, the entire medium was collected to assess the amount of released interleukin 1α (the medium was stored at -20 °C until the experiment was performed), and the inserts were transferred to the MTT solution. […] Measurement of the absorbance of the samples obtained in this way at 570 nm enabled the assessment of tissue viability according to the formula: % Viability = [OD (570 nm) for the tested compound/OD (570 nm) for the control] × 100.

Series [9] has as its system tyrosinase. Particulars: reference [11], cited from earlier work.
For series [10] the following is noted: 7-day application of a cream to the skin before exposure to UV radiation; compared to untreated skin; reference [8]; cited from earlier work.
The mark [11] stands for this setting: reference [6], read-out: IC50, tyrosinase diphenolase activity.
The mark [12] stands for this setting: reference [7], read-out: IC50, tyrosinase inhibition.

Procedure for E. coli WP2: (§3) The study used the Ames microplate test (Ames MPF™ Penta 2 by Xenometrix, Allschwil, Switzerland). Growth medium, exposure medium, indicator medium, positive controls, hepatic microsomal fraction, NADP, glucose-6-phosphate, Salmonella typhimurium and Escherichia coli strains were components of the purchased experimental kit. Bacteria were grown overnight in growth medium. They were then exposed to the test compound at the appropriate concentration in exposure medium without or with the rat microsomal fraction S9 in 24-well plates for 90 min at 37 °C with shaking. Then, indicator medium was added to the wells and pipetted into 384-well plates, which were incubated for 48 hours at 37 °C without shaking. Results were assessed by counting the wells in which the medium turned yellow for each experimental condition.
Procedure for S. typhimurium TA1535: as §3

Consider `CCC(O)CNC(=O)/C=C/c1ccc(Cl)cc1` (stereo not shown) [Compound A-67, (2E)-3-(4-chlorophenyl)-N-(2-hydroxybutyl)prop-2-enamide], for which the “Increase in the number of yellow wells compared to the reference level” value (shortened to “Increase in the number of yellow wells”) in the series with S. typhimurium TA98 (0.5 mM, +S9) amounted to 0.31; with S. typhimurium TA98 (0.5 mM, without S9) it was 0.27; with S. typhimurium TA98 (1.0 mM, +S9), 0.94; with S. typhimurium TA98 (1.0 mM, without S9), 1.07; in the series with S. typhimurium TA98 (2.0 mM, +S9), 1.04; in the series on S. typhimurium TA98 (2.0 mM, without S9), 1.07. For the same molecule, the “Increase in the number of yellow wells” value with S. typhimurium TA100 (0.5 mM, +S9) amounted to 0.78; in the series on S. typhimurium TA100 (0.5 mM, without S9), 1.53; in the series on S. typhimurium TA100 (1.0 mM, +S9), 0.64; in the series with S. typhimurium TA100 (1.0 mM, without S9), 0.93; in the series on S. typhimurium TA100 (2.0 mM, +S9), 0.31; in the series on S. typhimurium TA100 (2.0 mM, without S9), 0.80. Moreover, the “Increase in the number of yellow wells” value in the series with E. coli WP2 (0.5 mM, +S9) was 0.83; in the series on E. coli WP2 (0.5 mM, without S9), 0.50; in the series with E. coli WP2 (1.0 mM, +S9), 0.42; with E. coli WP2 (1.0 mM, without S9), 1.00; with E. coli WP2 (2.0 mM, +S9) it was 1.42; in the series with E. coli WP2 (2.0 mM, without S9), 0.83. The “Increase in the number of yellow wells” value in the series on S. typhimurium TA1537 (0.5 mM, +S9) worked out at 1.00; in the series on S. typhimurium TA1537 (0.5 mM, without S9), 0.00; with S. typhimurium TA1537 (1.0 mM, +S9), 1.33; in the series with S. typhimurium TA1537 (1.0 mM, without S9), 0.18; in the series with S. typhimurium TA1537 (2.0 mM, +S9), 0.00; in the series on S. typhimurium TA1537 (2.0 mM, without S9), 0.82. Further, the “Increase in the number of yellow wells” value in the series on S. typhimurium TA1535 (0.5 mM, +S9) is 0.27; with S. typhimurium TA1535 (0.5 mM, without S9), 0.30; in the series on S. typhimurium TA1535 (1.0 mM, +S9), 0.54; in the series on S. typhimurium TA1535 (1.0 mM, without S9), 0.45; in the series on S. typhimurium TA1535 (2.0 mM, +S9), 0.13; with S. typhimurium TA1535 (2.0 mM, without S9), 1.04. The molecule also yielded an RM0 in series [1] of 2.46. In addition, the figures for the “DB (dicentric bridges in 1000 binucleate cells)” value in series [2] (100 µM), in series [2] (150 µM) and in series [2] (200 µM) were 3.3 ± 0.6, 2.3 ± 0.6 and 3.0 ± 2.8, respectively. Besides, the “MN (number of micronuclei in 1000 binucleate cells)” value in series [2] (100 µM) came to 12.0 ± 5.7; in [2] (150 µM) it was 8.0 ± 2.8; in series [2] (200 µM) it was 6.5 ± 2.1. Besides, the “NB (nuclear buds in 1000 binucleate cells)” value in series [2] (100 µM) is on record as 5.0 ± 2.8; in [2] (150 µM) it was 5.5 ± 2.1; in series [2] (200 µM) it was 5.5 ± 0.7. The “NDI (nuclear division index)” value stood at 1.58 in series [2] (100 µM), 1.62 in series [2] (150 µM) and 1.62 in series [2] (200 µM). Besides, the “Tyrosinase inhibition with L-DOPA [%]” value in the series on tyrosinase from mushroom (L-DOPA) is listed as 60.76±1.99% (500 µM). For the same molecule, the IC50 at tyrosinase from mushroom (L-DOPA, read-out: Tyrosinase inhibition with L-DOPA, IC50) stood at 232 µM; on tyrosinase from mushroom (L-tyrosine, read-out: Tyrosinase inhibition with L-tyrosine, IC50), 165 µM. The “Tyrosinase inhibition with L-tyrosine [%]” value in the series with tyrosinase from mushroom (L-tyrosine) is 79.20±1.20% (500 µM). The “Cytotoxicity study in B16F10 cells % viability” value in series [3] (150 µM) was found to be 73.6%; in [3] (200 µM) it was 87.8%; in series [3] (250 µM), 84.4%. Moreover, the “% Viability [mean]” value in series [4] (100 µM) is 96.0%; in [4] (150 µM), 90.3%; in [4] (200 µM), 84.0%.
On to `COc1ccc(C=CC(=O)O)cc1` [4-methoxycinnamic acid], for which the 50% inhibitory concentration (IC50) at tyrosinase [5] (setting [11]) was 420 µM.
Take `CN(C)CCCN1c2ccccc2Sc2ccc(Cl)cc21` [Chlorpromazine, reference compound]: the phototoxic potential entry in [6] is reported as “clearly indicate its phototoxic potential”. This molecule came in with an IC50 in series [6] (Mus musculus, BALB/c3T3) of 18.6 µg/mL (≈ 58.2 µM). Also, in series [6] (mouse, 1 h), the MPE is on record as 0.499 and the PIF amounted to 25.618. The “Viability [% relative to water] ± SD” value in [7] was 99.52±9.41 % relative to water.
For the molecule `O=C(O)C=Cc1ccccc1` [Cinnamic acid], the “mechanism of tyrosinase inhibition” value in the series with tyrosinase [5] is given as “non-competitive inhibitor”.
For `O=C(O)C=Cc1ccc(Cl)cc1Cl` [2,4-dichlorocinnamic acid], the IC50 at tyrosinase [5] (setting [12]) was 295 µM. Further, the “mechanism of tyrosinase inhibition” value in the series with tyrosinase [5] was “reversible non-competitive mechanism”.
On to `CCCCCCCCCCCCOS(=O)(=O)[O-].[Na+]` [SDS, sodium lauryl sulfate], for which the tissue viability in [8] (compared to the negative control (PBS and PEG400)) came to 23.8%. Also, in series [8] (positive control), the “IL-1α concentration in the culture medium” value is recorded as greater than 250 pg/mL.
Take `CCOC(=O)[C@H](Cc1ccccc1)NC(=O)C=Cc1ccc(O)c(OC)c1` (stereo in doubt) [N-[3-(4-hydroxy-3-methoxyphenyl)-1-oxo-2-propen-1-yl]-L-phenylalanine ethyl ester]: the type of inhibition result in the series with tyrosinase [9] is listed as “mixed type of inhibition”. Moreover, the concentration for half-maximal inhibition (IC50) at tyrosinase [9] (read-out: IC50, tyrosinase inhibition) was 0.185 ± 0.005 µM.
In the case of `O=C(O)C=Cc1ccccc1Cl` [2-Chlorocinnamic acid], the half-inhibitory concentration (IC50) on tyrosinase [5] (setting [12]) was 765 µM. The “mechanism of tyrosinase inhibition” value in the series on tyrosinase [5] is “reversible non-competitive mechanism”.
Regarding `O=C(O)C=Cc1ccc(O)cc1` [4-Hydroxycinnamic acid], the “inhibition of erythema formation” value in [10] is reported as 77%. The IC50 at tyrosinase [5] (setting [11]) is 500 µM.
